Source: ChEMBL document CHEMBL1201862, “PubChem BioAssay data set” (2004)
Values belong to the molecule of their own block, whether it stands above or below them. Activity calls are given as the source filed them.

Key:
[1] = molecular target: T1, Sentrin-specific protease 6 (Homo sapiens, UniProt Q9GZR1); assay type: functional;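 note: Luminescence-based dose-response confirmatory assay of SENP6 inhibition, following up an ultra-high-throughput screen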
T1 sequence (Q9GZR1 whole entry): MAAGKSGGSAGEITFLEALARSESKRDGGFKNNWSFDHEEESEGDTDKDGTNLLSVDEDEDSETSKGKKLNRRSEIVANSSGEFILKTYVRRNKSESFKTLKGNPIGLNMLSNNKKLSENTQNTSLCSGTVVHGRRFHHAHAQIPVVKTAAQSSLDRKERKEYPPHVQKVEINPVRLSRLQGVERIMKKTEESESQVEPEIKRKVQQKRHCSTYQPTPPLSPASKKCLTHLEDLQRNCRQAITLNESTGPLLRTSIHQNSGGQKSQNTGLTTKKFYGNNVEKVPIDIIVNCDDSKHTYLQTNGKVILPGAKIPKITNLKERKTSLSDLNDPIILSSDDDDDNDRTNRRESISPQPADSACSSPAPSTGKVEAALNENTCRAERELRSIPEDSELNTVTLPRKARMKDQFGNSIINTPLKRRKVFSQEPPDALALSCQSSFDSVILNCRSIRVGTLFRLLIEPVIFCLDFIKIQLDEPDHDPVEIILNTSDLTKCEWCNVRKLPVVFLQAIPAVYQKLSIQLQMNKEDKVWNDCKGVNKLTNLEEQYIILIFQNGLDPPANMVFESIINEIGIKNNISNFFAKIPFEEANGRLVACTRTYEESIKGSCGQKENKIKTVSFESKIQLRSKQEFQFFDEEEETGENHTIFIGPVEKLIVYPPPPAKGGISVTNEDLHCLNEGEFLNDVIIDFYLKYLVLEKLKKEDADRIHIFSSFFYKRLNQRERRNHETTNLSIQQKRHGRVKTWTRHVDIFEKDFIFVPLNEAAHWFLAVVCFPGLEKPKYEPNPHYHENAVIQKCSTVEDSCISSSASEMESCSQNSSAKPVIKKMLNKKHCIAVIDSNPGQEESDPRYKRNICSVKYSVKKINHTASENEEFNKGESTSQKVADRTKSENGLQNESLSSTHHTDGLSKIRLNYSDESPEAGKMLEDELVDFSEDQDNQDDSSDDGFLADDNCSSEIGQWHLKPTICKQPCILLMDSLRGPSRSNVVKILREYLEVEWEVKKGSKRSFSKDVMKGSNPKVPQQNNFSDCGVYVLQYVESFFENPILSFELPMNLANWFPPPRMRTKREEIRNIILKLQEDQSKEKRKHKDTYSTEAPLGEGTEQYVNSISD

[2] = molecular target: Tyrosyl-DNA phosphodiesterase 2 (Homo sapiens, UniProt O95551); assay: human TDP2 enzyme inhibitors, dose response, biochemical, epi absorbance, IC50 (AID 743297)
Sequence of Tyrosyl-DNA phosphodiesterase 2 (O95551 whole entry): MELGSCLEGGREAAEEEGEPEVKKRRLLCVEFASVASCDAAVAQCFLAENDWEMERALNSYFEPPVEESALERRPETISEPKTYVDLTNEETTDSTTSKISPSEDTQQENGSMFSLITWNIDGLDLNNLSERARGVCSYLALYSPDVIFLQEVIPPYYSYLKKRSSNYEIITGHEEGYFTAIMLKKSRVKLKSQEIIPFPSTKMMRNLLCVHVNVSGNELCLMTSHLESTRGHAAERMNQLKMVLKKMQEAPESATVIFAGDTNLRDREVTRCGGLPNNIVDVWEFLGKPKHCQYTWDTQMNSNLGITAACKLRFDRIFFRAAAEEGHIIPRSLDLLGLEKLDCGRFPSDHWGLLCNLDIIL

Caspase-3 = molecular target: T2, Caspase-3 (Homo sapiens, UniProt P42574); assay type: functional;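 note: Dose-response selectivity test against caspase-3 for candidate inhibitors of sentrin-specific proteases (SENPs)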
T2 sequence (P42574 whole entry): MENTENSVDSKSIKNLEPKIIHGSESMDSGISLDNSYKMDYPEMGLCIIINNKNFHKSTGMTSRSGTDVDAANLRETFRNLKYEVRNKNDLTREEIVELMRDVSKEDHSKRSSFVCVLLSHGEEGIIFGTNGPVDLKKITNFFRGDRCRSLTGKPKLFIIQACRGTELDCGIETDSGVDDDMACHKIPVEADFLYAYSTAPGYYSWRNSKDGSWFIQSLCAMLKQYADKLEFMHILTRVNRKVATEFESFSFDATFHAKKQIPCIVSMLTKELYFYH

[3] = molecular target: T3, Sentrin-specific protease 8 (Homo sapiens, UniProt Q96LD8); assay type: functional;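 note: luminescence read-out of SENP8 inhibition, dose-response confirmation following an ultra-high-throughput screen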
T3 sequence (Q96LD8 whole entry): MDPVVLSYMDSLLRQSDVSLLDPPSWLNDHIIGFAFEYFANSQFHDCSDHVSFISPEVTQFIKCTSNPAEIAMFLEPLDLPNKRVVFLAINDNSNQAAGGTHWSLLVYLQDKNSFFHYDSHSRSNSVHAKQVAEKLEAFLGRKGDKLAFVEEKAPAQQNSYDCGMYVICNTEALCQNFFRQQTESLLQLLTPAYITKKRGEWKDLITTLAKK

[4] = NIH-3T3 fibroblast cytotoxicity, dose response, cytotoxicity control, cell-based, fluorescence, Alamar Blue, secondary assay (AID 2327); assay type: functional;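 note: NIH-3T3 mouse fibroblasts cultured with fluconazole at 8 µg/mL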
cells = assay type: functional, cell-based
[5] = Counterscreen for AddAB inhibitors: absorbance-based bacterial cell-based high throughput dose response assay for inhibitors of bacterial viability. [Related pubchem assays (depositor defined):AID435030, AID449728, AID449731, AID488942, AID488955, AID488956]; assay type: functional

SMILES: NS(=O)(=O)c1ccc(NC2=CC(=O)C(=O)c3ccccc32)cc1
IC50 [1]: 2.89 µM (active) | IC50 [2]: 5.59 µM (active) | IC50 (Caspase-3): 9.75 µM (active) | IC50 [3]: 4.96 µM (active)

IC50 [1]: 3.95 µM (active) | IC50 (Caspase-3): 7.82 µM (active)
SMILES: CC(C)n1cnc2c(NCc3ccccc3)cc(OCC3CCN(C)CC3)cc21
IC50 [3]: 4.97 µM (active)

SMILES: O=C(N/N=C/c1ccc(O)cc1O)c1ccc(CN2C(=O)c3cccc4cccc2c34)cc1
EC50 [4]: 4.96 µM (active) | EC50 (cells): > 350 µM (not active) | IC50 [5]: > 119 µM (inactive)

SMILES: CCC(=O)NC(c1ccccc1OC)c1ccc2cccnc2c1O (configuration not stated)
EC50 [4]: 26.6 µM (inconclusive) | EC50 (cells): > 350 µM (not active) | IC50 [5]: > 119 µM (inactive)

SMILES: CC(C)N(C(=O)Nc1ccc2nsnc2c1)C(C)C
IC50 [1]: 2.39 µM (active) | IC50 [2]: 8.96 µM (active) | IC50 (Caspase-3): 5.81 µM (active) | IC50 [3]: 2.41 µM (active)
